What was measured:
[1] = target: T1, HIV-1 reverse transcriptase (Human immunodeficiency virus type 1 group M subtype B, UniProt P03367); test: Reverse Transcriptase (RT) Assay; assay type: biochemical; conditions: RNA-dependent DNA polymerase activity
T1 construct: Reverse transcriptase enzyme from the LAV strain of Human Immunodeficiency Virus (HIV-1); made in house; host or cells: E. coli JM109, clone pBRTprt1+ in vector pIBI21 (lac promoter, IPTG induction)
Text: Utilizing the Reverse Transcriptase (RT) Assay described below, compounds can be tested for their ability to inhibit the RNA-dependent DNA polymerase activity of HIV RT. Certain specific compounds, described in the Examples which appear below, were so tested.
Among the enzymes for which Human Immunodeficiency Virus (HIV-1) encodes is a reverse transcriptase (1), so-named because it transcribes a DNA copy from an RNA template. This activity can be quantitatively measured in a cell-free enzyme assay which has been previously described (2), and is based upon the observation that reverse transcriptase is able to use a synthetic template [poly r(C) primed with oligo d(G)] to transcribe a radio-labelled, acid-precipitable DNA strand utilizing ³H-dGTP as a substrate.
a) Preparation of the enzyme Reverse transcriptase enzyme from the LAV strain of Human Immunodeficiency Virus (HIV-1) (1) was isolated from the bacterial strain JM109 (3) expressing the DNA clone pBRTprt1+ (2) which is under the control of the lac promotor in the expression vector pIBI21 (4). An overnight culture grown in 2XYT medium (37°C, 225 rpm) (5) supplemented with 100 µg/ml ampicillin for positive selection is inoculated at a 1:40 dilution into M9 medium supplemented with 10µg/ml thiamine, 0.5% casamino acids, and 50 µg/ml ampicillin (5). The culture is incubated (37°C, 225 rpm) until it reaches an OD540 of 0.3-0.4. At that time the repressor inhibitor IPTG (isopropyl b-D-thiogalactopyranoside) is added to 0.5mM and incubated for 2 additional hours. Bacteria are pelleted, resuspended in a 50mM Tris, 0.6mM EDTA, 0.375M NaCl buffer and digested by the addition of lysozyme (1mg/ml) for 30 minutes on ice. The cells are lysed by the addition to 0.2% NP-40 and brought to 1M NaCl. After removal of the insoluble debris by centrifugation, the protein is precipitated by the addition of 3 volumes of saturated aqueous ammonium sulfate. The enzyme is pelleted, resuspended in RT buffer (50mM Tris pH 7.5, 1mM EDTA, 5mM DTT, 0.1% NP-40, 0.1M NaCl, and 50% glycerol) and stored at -70°C for further use. b) Composition of 2X concentrated stock reaction mixture
The 2X concentrated stock reaction mixture is aliquoted and stored at -20°C. The mixture is stable and thawed for use in each assay. This enzyme assay has been adapted to a 96 well microtiter plate system, and has been previously described (6). Tris buffer (50 mM, pH 7.4), vehicle (solvent diluted to match the compound dilution), or compounds in vehicle are dispensed into 96-well miciotiter plates (10µl/well; 3 wells/compound). The HIV RT enzyme is thawed, diluted in 50mM Tris pH 7.4 so that fifteen µl of diluted enzyme contain 0.001 Unit (one unit is that amount of enzyme to transform 1 micromole of substrate per minute at 25°C), and 15µl are dispensed per well. Twenty µl of 0.12-0.5M EDTA are added to the first three wells of the microtiter plate. EDTA chelates the Mg⁺⁺ present and prevents reverse transcription. This group serves as background polymerization which is subtracted from all other groups. Twenty-five µl of the 2X reaction mixture are added to all wells and the assay is allowed to incubate at room temperature for 60 minutes. The assay is terminated by precipitating the DNA in each well with 50µl of trichloracetic acid (TCA) (10% w/v) in sodium pyrophosphate (1% w/v). The microtiter plate is incubated for 15 minutes at 4°C and the precipitate is fixed onto #30 glass fiber paper (Schleicher & Schuell) using a Skatron semi-automatic harvester. The filters are then washed with additional TCA (5%) containing sodium pyrophosphate (1%), rinsed with aqueous ethanol (70%), dried, and transferred to scintillation vials (6). Each vial receives 2 mls of scintillation cocktail and is counted in a Beckman beta counter.
The calculation for percent inhibition is as follows: [formula]

[2] = MTT Assay for Cellular Cytotoxicity; assay type: cell-based; conditions: human, H9 cells, five days, EC₅₀ called the highest non-toxic concentration, read-out: Cytotoxity Assay (EC₅₀)
Description: In order to roughly assess the cytotoxicity of the compounds provided by the invention, several such compounds were tested in the MTT Cellular Cytotoxicity Assay described below. Compounds having a relatively high EC₅₀ are preferred.
The MTT [3-(4,5-dimethylthiazol-2-yl)-2,5-diphenyl tetrazolium bromide) assay is based on cleavage of tetrazolium bromide by metabolically active cells, resulting in a highly quantitative blue color. This assay has been previously described (1) but his been optimized for the purposes of the testing reported herein.
The H9 cell line (2), an established human lymphoma suspension cell line grown in RPMI 1640 supplemented with 10% fetal bovine serum is used as the target cell line in the assay. Cells (100µl) are plated in microtest plate wells at a concentration of 10⁵ cells per ml in the presence of varying concentrations of inhibitor. The cells are incubated at 37°C in a humidified CO₂ incubator. Five days later, 20µl of MTT (5mg/ml in RPMI 1640, sonicated, 0.2 micron filtered, and stored at 4°C) is added to each well. After 4 hours additional incubation at 37°C, 60µl of Triton-X is added to each well and thoroughly mixed to aid the solubilization of the crystals. Absolute ethanol (5µl) is added to each well and the resulting mixture is incubated for 30 minutes at 60°C and immediately read on a plate reader (Dynatech) at a wavelength of 570nm. […]

[3] = test system: HTLV-IIIB strain of HIV-1; test: Human T-Cell Culture Assay (syncytia formation in c8166 cells); assay type: cell-based; conditions: Human immunodeficiency virus 1, IIIB, 96 h, syncytia four days after virus challenge
Description: In order to confirm that compounds which are active in the RT Assay also have the ability to inhibit HIV replication in a living system, compounds according to the invention were also tested in the Human T-Cell Culture Assay described below.
Assay Theory: Formation of syncytia is a feature of in vitro cultures of CD4+ T-cells infected with HIV-1. In this assay, T-cells are treated with a putative replication inhibiting compound and then infected with HIV-1. After incubation the culture is checked for the formation of syncytia. The absence or reduction is the number of syncytia is used as a measure of the test compound's ability to inhibit HIV replication.
Assay Method: The target cells, designated c8166, are a subclone of human lymphoma cells of T-cell origin and are established at an initial density of 5x10⁴ per 100 µl in RPMI 1640 (+ 10% fetal bovine serum) culture medium in 96 well flat bottom plates. A selected amount of test compound, dissolved in DMSO is included. After 24 hours, 50-100 TCID50's (the dose that results in induced effect in 50% of test cultures) of the HTLV-IIIB strain of HIV-1 (2) are innoculated into each culture. Control cultures receive compound or virus only. […] The percent inhibition by the test compound is determined by comparison with control values. […]

inhibition at 10 µg/mL [1] [%] | SMILES | further results
94 | CCN1c2ccccc2C(=O)N(C)c2cccnc21 [Example 9f, 5-Methyl-11-ethyl-5,11-dihydro-6H-pyrido[2,3-b][1,4]benzodiazepin-6-one] | –
84 | Cc1ccc2c(n1)N(C)c1c(C)cccc1C(=O)N2C [Example 5, 2,5,10,11-Tetramethyl-5,11-dihydro-6H-pyrido[2,3-b][1,4]benzodiazepin-6-one] | –
50 | Cc1ccc2c(c1)C(=O)N(C)c1ccc(C)nc1N2C [Example 2, 2,5,8,11-Tetramethyl-5,11-dihydro-6H-pyrido[2,3-b][1,4]benzodiazepin-6-one] | –
40 | Cc1ccc2c(c1)C(=O)N(C)c1cccnc1N2C [Example 8, 5,8,11-Trimethyl-5,11-dihydro-6H-pyrido[2,3-b][1,4]benzodiazepin-6-one] | –
87 | CCN1C(=O)c2ccccc2N(CC)c2ncccc21 [Example 9g, 5,11-Diethyl-5,11-dihydro-6H-pyrido[2,3-b][1,4]benzodiazepin-6-one] | CC50 at 120 h [2]: 100 µM; inhibition at 75 µM ([3]; @75µM): 100%
70 | C=CCN1C(=O)c2ccccc2N(CC)c2ncccc21 [Example 9h, 5-(2-Propenyl)-11-ethyl-5,11-dihydro-6H-pyrido[2,3-b][1,4]benzodiazepin-6-one] | –
82 | CCN1c2ccccc2C(=O)Nc2cccnc21 [Example 9b, 11-Ethyl-5,11-dihydro-6H-pyrido[2,3-b][1,4]benzodiazepin-6-one] | –
55 | O=C1Nc2cccnc2Nc2ccccc21 [Example 9c, 5,11-dihydro-6H-pyrido[2,3-b][1,4]benzodiazepin-6-one] | –
87 | CCN1C(=O)c2cccc(C)c2N(CC)c2ncccc21 [Example 3, 5,11-Diethyl-10-methyl-5,11-dihydro-6H-pyrido[2,3-b][1,4]benzodiazepin-6-one] | –
38 | CCCN1C(=O)c2ccccc2N(C)c2ncccc21 [Example 9e, 5-n-Propyl-11-methyl-5,11-dihydro-6H-pyrido[2,3-b][1,4]benzodiazepin-6-one] | –
24 | CCN1C(=O)c2ccccc2N(C)c2ncccc21 [Example 9d, 5-Ethyl-11-methyl-5,11-dihydro-6H-pyrido[2,3-b][1,4]benzodiazepin-6-one] | –
91 | CCN1c2ccc(C)cc2C(=O)N(C)c2cccnc21 [Example 4, 5,8-Dimethy-11-ethyl-5,11-dihydro-6H-pyrido[2,3-b][1,4]benzodiazepin-6-one] | CC50 at 120 h [2]: 40 µM; inhibition at 19 µM ([3]; @19µM): 100%
43 | CCN1C(=O)c2ccccc2N(C)c2nc(Cl)ccc21 [Example 7, 2-Chloro-5-ethyl-11-methyl-5,11-dihydro-6H-pyrido[2,3-b] [1,4]benzodiazepin-6-one] | –
86 | CC(C)(C)OC(=O)CN1c2ccccc2C(=O)Nc2cccnc21 [Example 6] | –
17 | CN1c2ccccc2C(=O)Nc2cccnc21 [Example 9a, 11-Methyl-5,11-dihydro-6H-pyrido[2,3-b][1,4]benzodiazepin-6-one] | –
41 | C=C(Cl)CN1C(=O)c2ccccc2N(CC)c2ncccc21 [Example 1, 5-(2-Chloro-2-propenyl)-11-ethyl-5,11-dihydro-6H-pyrido [2,3-b][1,4]benzodiazepin-6-one] | –
